{"source": "patent US20190175598A1", "about": "“COMBINATION THERAPIES FOR THE TREATMENT OF HEPATOCELLULAR CARCINOMA” (Eisai R&D Management Co., Ltd., priority 2016, published 2019)", "key": {"[1]": {"tested_on": "human hepatocellular cancer cell line JHH7 xenograft", "assay": "JHH7 xenograft model of hepatocellular carcinoma, antitumor activity", "type": "in vivo, mice", "conditions": "PO QD 8 days", "method": "The cell line used, JHH7, was sourced from Japanese Collection of Research Bioresources Cell Bank (JCRB), verified free of mycobacterium contamination and verified for identity by short tandem repeat analysis of 9 markers.\nJHH7 cells were maintained in William's E Medium (Thermo Fisher Scientific, 12551-032) with 10% fetal bovine serum. Cells were maintained prior to and during experiments at 37° C. 5% CO2, and at 95% relative humidity. Cell passage number was limited to between 12 and 20.\nThe human hepatocellular cancer cell line JHH7 was cultured in William's E Medium (Thermo Fisher Scientific, 12551-032) containing 10% fetal bovine serum at 37° C. in a 5% CO2 atmosphere and kept in exponential growth phase. For harvesting, the cells were washed with phosphate buffered saline, incubated with 0.25% trypsin-EDTA, and suspended in a 1:1 mixture of William's E Medium and Matrigel (Corning) at a final concentration of 5×10^7 cells/mL. To generate xenografts, 0.1-mL of the inoculum was injected subcutaneously into the right flank region of NU/NU immuno compromised 6-8 week old female mice, giving a final concentration of 5×10^6 cells/mouse. When the mean tumor volume (TV) reached approximately 170 mm^3 (10 days after implantation), 144 mice were selected based on their TVs, and were sorted into 18 treatment groups with 8 animals per group. Per os (PO) treatment with Compound 1 (300 and 500 mg/kg) alone or in combination with vehicle (control) or palbociclib (50 and 100 mg/kg) or ribociclib (75 and 150 mg/kg) administered once daily (QD) continued for 8 days. The administration volume (0.1 mL/10 g body weight) was calculated from the individual mouse body weight (BW) before administration. Body weights were measured daily and tumor measurements were performed twice weekly.\n(§1) where Day X is any day of measurement\n(§2) The anti-tumor effects of the treatment, Partial (PR) and complete regression (CR), stable (SD) and progressive (PD) disease were defined by the Xenograft Model Response Criteria (see below). Mice with >20% body weight loss compared to their Day 1 body weight or bearing tumors with the longest diameter […] were immediately euthanized to prevent any pain or suffering in the animal as according to IACUC guidelines.\nData are expressed as the mean±SEM for Tumor Volume (TV). The differences in TV between groups were analyzed by two way ANOVA followed by Sidak post hoc test. Statistical analyses were performed using the GraphPad Prism version 6 (GraphPad Software, La Jolla, Calif.).\nProgressive disease (PD): 3 consecutive measurements >120% of starting volume or 3 consecutive increasing measurements from best response, Stable disease (SD): 3 consecutive measurements >50% and <120% of starting volume, Partial regression (PR): 3 consecutive measurements <50% of starting volume, Complete regression (CR): 3 consecutive measurements <30 mm^3."}, "[2]": {"tested_on": "human primary hepatocellular carcinoma model LIX066", "assay": "LIX066 patient derived xenograft model of hepatocellular carcinoma, antitumor activity", "type": "in vivo, mice", "conditions": "Example 3, oral daily 17 days", "method": "The human primary hepatocellular carcinoma model LIX066 model from ChemPartner (shangpharma.com) were implanted into the female severe combined immunodeficiency (SCID) mice. When the tumors developed in mice, the mice were sacrificed and the tumors were resected and implanted into female nude mice for tumor preservation, histopathology diagnosis and in vivo efficacy study. Solid tumor tissues were depleted of necrotic components, cut into 10-15 mg pieces, and mixed. Three to five pieces were mixed with […] Matrigel and implanted into a flank of 6-8-week-old female NU/NU immune compromised mice weighing 18-20 g nude mice. 30 mice with average tumor volume of 160 mm^3 selected and randomized into 6 groups of 5 mice each. All of the primary human tumors utilized in this study had undergone 3-5 passages in vivo and the tumor histology of each was maintained over the serial transplantation process. Per os (PO) treatment with Compound 1 (300 and 500 mg/kg) alone or in combination with vehicle (control) or palbociclib (100 mg/kg) administered once daily (QD) continued for 17 days. The administration volume (0.1 mL/10 g body weight) was calculated from the individual mouse body weight (BW) before administration. Body weights were measured daily and tumor measurements were performed twice weekly.\nas §1, §2\nData are expressed as the mean±SEM for Tumor Volume (TV). The differences in TV between groups were analyzed by two way ANOVA followed by Sidak post hoc test. Statistical analyses were performed using the GraphPad Prism version 6 (GraphPad Software, La Jolla, Calif.). […]"}}}
{"smiles": "CC(=O)c1c(C)c2cnc(Nc3ccc(N4CCNCC4)cn3)nc2n(C2CCCC2)c1=O", "note": "[Palbociclib, 6-acetyl-8-cyclopentyl-5-methyl-2-{[5-(piperazin-1-yl)pyridin-2-yl]amino}pyrido[2,3-d]pyrimidin-7(8H)-one, reference compound]", "values": [{"measurement": "Tumor Growth Inhibition % (TGI)", "setting": "[1]; Example 2, palbociclib 50 mg/kg single agent, vs vehicle controls (not significant)", "value": 11, "unit": "%"}, {"measurement": "Tumor Growth Inhibition % (TGI)", "setting": "[1]; Example 2, palbociclib 100 mg/kg single agent, vs vehicle controls (P≤0.05)", "value": 26, "unit": "%"}, {"measurement": "Tumor Growth Inhibition % (TGI)", "setting": "[2]; palbociclib 100 mg/kg single agent, vs vehicle controls (P≤0.001)", "value": 62, "unit": "%"}]}
{"smiles": "CN(C)C(=O)c1cc2cnc(Nc3ccc(N4CCNCC4)cn3)nc2n1C1CCCC1", "note": "[Ribociclib, 7-Cyclopentyl-2-(5-piperazin-1-yl-pyridin-2-ylamino)-7H-pyrrolo[2,3-d]pyrimidine-6-carboxylic acid dimethylamide, reference compound]", "values": [{"measurement": "Tumor Growth Inhibition % (TGI)", "setting": "[1]; Example 1, ribociclib 75 mg/kg single agent, vs vehicle controls (not significant)", "value": 13, "unit": "%"}, {"measurement": "Tumor Growth Inhibition % (TGI)", "setting": "[1]; Example 1, ribociclib 150 mg/kg single agent, vs vehicle controls (P≤0.0001)", "value": 23, "unit": "%"}]}
{"smiles": "C=CC(=O)Nc1cc(N2CCN(CC)CC2)ccc1Nc1cc(N(C)C(=O)Nc2c(Cl)c(OC)cc(OC)c2Cl)ncn1", "note": "[Compound 1, N-(2-((6-(3-(2,6-dichloro-3,5-dimethoxyphenyl)-1-methylureido)pyrimidin-4-yl)amino)-5-(4-ethylpiperazin-1-yl)phenyl)acrylamide]", "values": [{"measurement": "Tumor Growth Inhibition % (TGI)", "setting": "[1]; Example 1, Compound 1 300 mg/kg single agent, vs vehicle controls", "value": 14, "unit": "%"}, {"measurement": "Tumor Growth Inhibition % (TGI)", "setting": "[1]; Example 1, Compound 1 500 mg/kg single agent, vs vehicle controls", "value": 35, "unit": "%"}, {"measurement": "Tumor Growth Inhibition % (TGI)", "setting": "[1]; Example 2, Compound 1 300 mg/kg single agent, vs vehicle controls (P≤0.01)", "value": 12, "unit": "%"}, {"measurement": "Tumor Growth Inhibition % (TGI)", "setting": "[1]; Example 2, Compound 1 500 mg/kg single agent, vs vehicle controls (P≤0.0001)", "value": 32, "unit": "%"}, {"measurement": "Tumor Growth Inhibition % (TGI)", "setting": "[2]; Compound 1 300 mg/kg single agent, vs vehicle controls (P≤0.0001)", "value": 59, "unit": "%"}, {"measurement": "Tumor Growth Inhibition % (TGI)", "setting": "[2]; Compound 1 500 mg/kg single agent, vs vehicle controls (P≤0.0001)", "value": 70, "unit": "%"}]}
